The supplement of paper PMC10307832

Tests used:
Test in all cases: relative viability (nuclei count vs DMSO), 5 days (fraction); higher = more cells survive
NCI-H520 = system: NCI-H520
How it was run: (§1)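 After 5 days of treatment, lung cancer cells in 1536-well plates were fixed and stained in a single step (final 0.05% Triton X-100, 1% formaldehyde, 1 ug/ml Hoechst) and their nuclei counted on 4× images. Treatment had been applied by pin tool the day after seeding as one drug alone or as a fixed anchor-drug dose with five library-drug doses (not always all listed) in √10 steps. Relative viability is the nuclei count of treated wells divided by that of vehicle wells, and values are medians of duplicate plates.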

NCI-H1651 = system: NCI-H1651
How it was run: as §1

NCI-H647 = system: NCI-H647
How it was run: as §1

H3255 = system: H3255
How it was run: as §1

HCC-15 = system: HCC-15
How it was run: as §1

NCI-H358 = system: NCI-H358
How it was run: as §1

NCI-H1755 = system: NCI-H1755
How it was run: as §1

NCI-H727 = system: NCI-H727
How it was run: as §1

NCI-H650 = system: NCI-H650
How it was run: as §1

LCLC-103H = system: LCLC-103H
How it was run: as §1

NCI-H1437 = system: NCI-H1437
How it was run: as §1

HCC-827 = system: HCC-827
How it was run: as §1

NCI-H661 = system: NCI-H661
How it was run: as §1

NCI-H1650 = system: NCI-H1650
How it was run: as §1

NCI-H2087 = system: NCI-H2087
How it was run: as §1

COR-L23 = system: COR-L23
How it was run: as §1

EPLC-272H = system: EPLC-272H
How it was run: as §1

NCI-H1975 = system: NCI-H1975
How it was run: as §1

NCI-H1944 = system: NCI-H1944
How it was run: as §1

COR-L 105 = system: COR-L 105
How it was run: as §1

COCC1(CO)C(=O)C2CCN1CC2 (stereo unspecified) [PRIMA-1MET] + COc1cc2c(Oc3ccc(NC(=O)C4(C(=O)Nc5ccc(F)cc5)CC4)cc3F)ccnc2cc1OCCCN1CCOCC1 [Foretinib] (partner 0.25 µM)
relative viability (NCI-H520; first compound 0.2 µM): 0.794
relative viability (NCI-H520; first compound 0.6325 µM): 0.62
relative viability (NCI-H520; first compound 2 µM): 0.669
relative viability (NCI-H520; first compound 6.325 µM): 0.715
relative viability (NCI-H520; first compound 20 µM): 0.0989
relative viability (NCI-H1651; first compound 0.2 µM): 0.87
relative viability (NCI-H1651; first compound 0.6325 µM): 0.578
relative viability (NCI-H1651; first compound 2 µM): 0.77
relative viability (NCI-H1651; first compound 6.325 µM): 0.933
relative viability (NCI-H1651; first compound 20 µM): 0.827
relative viability (NCI-H647; first compound 0.2 µM): 1.29
relative viability (NCI-H647; first compound 0.6325 µM): 0.973
relative viability (NCI-H647; first compound 2 µM): 1.08
relative viability (NCI-H647; first compound 6.325 µM): 1.22
relative viability (NCI-H647; first compound 20 µM): 1.16
relative viability (H3255; first compound 0.2 µM): 0.822
relative viability (H3255; first compound 0.6325 µM): 0.947
relative viability (H3255; first compound 2 µM): 0.807
relative viability (H3255; first compound 6.325 µM): 1.05
relative viability (H3255; first compound 20 µM): 0.924
relative viability (HCC-15; first compound 0.2 µM): 1.11
relative viability (HCC-15; first compound 0.6325 µM): 0.986
relative viability (HCC-15; first compound 2 µM): 1.03
relative viability (HCC-15; first compound 6.325 µM): 1.02
relative viability (HCC-15; first compound 20 µM): 0.555
relative viability (NCI-H358; first compound 0.2 µM): 0.881
relative viability (NCI-H358; first compound 2 µM): 0.592
relative viability (NCI-H358; first compound 6.325 µM): 0.634
relative viability (NCI-H358; first compound 20 µM): 0.0429
relative viability (NCI-H1755; first compound 0.2 µM): 1.02
relative viability (NCI-H1755; first compound 0.6325 µM): 0.932
relative viability (NCI-H1755; first compound 2 µM): 0.809
relative viability (NCI-H1755; first compound 6.325 µM): 0.907
relative viability (NCI-H1755; first compound 20 µM): 0.867
relative viability (NCI-H727; first compound 0.2 µM): 0.636
relative viability (NCI-H727; first compound 0.6325 µM): 0.674
relative viability (NCI-H727; first compound 2 µM): 0.782
relative viability (NCI-H727; first compound 6.325 µM): 1.03
relative viability (NCI-H727; first compound 20 µM): 0.44
relative viability (NCI-H650; first compound 0.2 µM): 1.34
relative viability (NCI-H650; first compound 2 µM): 0.917
relative viability (NCI-H650; first compound 6.325 µM): 1.1
relative viability (NCI-H650; first compound 20 µM): 0.644
relative viability (LCLC-103H; first compound 0.2 µM): 0.915
relative viability (LCLC-103H; first compound 0.6325 µM): 0.718
relative viability (LCLC-103H; first compound 2 µM): 0.698
relative viability (LCLC-103H; first compound 6.325 µM): 0.726
relative viability (LCLC-103H; first compound 20 µM): 0.189
relative viability (NCI-H1437; first compound 0.2 µM): 1.32
relative viability (NCI-H1437; first compound 0.6325 µM): 1.21
relative viability (NCI-H1437; first compound 2 µM): 1.24
relative viability (NCI-H1437; first compound 6.325 µM): 1.21
relative viability (NCI-H1437; first compound 20 µM): 1.17
relative viability (HCC-827; first compound 0.2 µM): 1.09
relative viability (HCC-827; first compound 0.6325 µM): 0.976
relative viability (HCC-827; first compound 2 µM): 0.749
relative viability (HCC-827; first compound 6.325 µM): 1.01
relative viability (HCC-827; first compound 20 µM): 0.929
relative viability (NCI-H661; first compound 0.2 µM): 1.07
relative viability (NCI-H661; first compound 0.6325 µM): 1
relative viability (NCI-H661; first compound 2 µM): 0.975
relative viability (NCI-H661; first compound 6.325 µM): 0.988
relative viability (NCI-H661; first compound 20 µM): 0.979
relative viability (NCI-H1650; first compound 0.2 µM): 1.45
relative viability (NCI-H1650; first compound 0.6325 µM): 1.03
relative viability (NCI-H1650; first compound 2 µM): 1.1
relative viability (NCI-H1650; first compound 6.325 µM): 0.924
relative viability (NCI-H1650; first compound 20 µM): 0.364
relative viability (NCI-H2087; first compound 0.2 µM): 1.29
relative viability (NCI-H2087; first compound 0.6325 µM): 1.17
relative viability (NCI-H2087; first compound 2 µM): 0.932
relative viability (NCI-H2087; first compound 6.325 µM): 1.02
relative viability (NCI-H2087; first compound 20 µM): 0.632
relative viability (COR-L23; first compound 0.2 µM): 1.23
relative viability (COR-L23; first compound 0.6325 µM): 0.956
relative viability (COR-L23; first compound 2 µM): 0.95
relative viability (COR-L23; first compound 6.325 µM): 1.06
relative viability (COR-L23; first compound 20 µM): 0.0732
relative viability (EPLC-272H; first compound 2 µM): 0.603
relative viability (EPLC-272H; first compound 6.325 µM): 0.896
relative viability (EPLC-272H; first compound 20 µM): 0.105
relative viability (NCI-H1975; first compound 0.2 µM): 1.07
relative viability (NCI-H1975; first compound 0.6325 µM): 0.958
relative viability (NCI-H1975; first compound 2 µM): 0.916
relative viability (NCI-H1975; first compound 6.325 µM): 1.01
relative viability (NCI-H1975; first compound 20 µM): 0.626
relative viability (NCI-H1944; first compound 0.2 µM): 1.02
relative viability (NCI-H1944; first compound 0.6325 µM): 0.789
relative viability (NCI-H1944; first compound 2 µM): 0.837
relative viability (NCI-H1944; first compound 6.325 µM): 0.881
relative viability (NCI-H1944; first compound 20 µM): 0.861
relative viability (COR-L 105; first compound 0.2 µM): 1.48
relative viability (COR-L 105; first compound 0.6325 µM): 1.02
relative viability (COR-L 105; first compound 2 µM): 1.17
relative viability (COR-L 105; first compound 6.325 µM): 1.2
relative viability (COR-L 105; first compound 20 µM): 0.551
